Reference: the supplement of paper PMC10307832

Experiments:
Experiment in all cases: relative viability (nuclei count vs DMSO), 5 days (fraction); higher = more cells survive
Lapatinib = compound: CS(=O)(=O)CCNCc1ccc(-c2ccc3ncnc(Nc4ccc(OCc5cccc(F)c5)c(Cl)c4)c3c2)o1 [Lapatinib]
Summary of the method: (§1)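 Following overnight incubation at 37 °C, lung cancer cell lines in 1536-well plates were pinned with five library-drug doses (not always all listed) in √10 steps on vehicle-anchored plates. The cells then spent 5 days without medium change before a combined fix, permeabilisation and Hoechst stain, 4× imaging and MetaXpress nuclear counts. Viability is the treated-to-vehicle ratio of nuclei, taken as the median across plates. Only plates with control CV below 25% and at least one doubling passed.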

Wnt-C59 = compound: CC1=NC=CC(=C1)C2=CC=C(C=C2)CC(=O)NC3=CC=C(C=C3)C4=CN=CC=C4 [Wnt-C59]
Summary of the method: as §1

Wnt-C59 + OSI-027 = compound: CC1=NC=CC(=C1)C2=CC=C(C=C2)CC(=O)NC3=CC=C(C=C3)C4=CN=CC=C4 [Wnt-C59] + COc1cccc2cc(-c3nc([C@H]4CC[C@H](C(=O)O)CC4)n4ncnc(N)c34)[nH]c12 [OSI-027] (partner 0.5 µM)
Summary of the method: (§2)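 Each reported value is a median over duplicate plates. It expresses relative viability: treated-well nuclei count divided by vehicle-well nuclei count. Lung cancer cell lines in 1536-well plates were dosed by pin tool a day after seeding, alone with one drug or with a fixed anchor-drug dose plus five library-drug doses (not always all listed) in √10 steps, and nuclei were counted after 5 days.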

Wnt-C59 + Luminespib = compound: CC1=NC=CC(=C1)C2=CC=C(C=C2)CC(=O)NC3=CC=C(C=C3)C4=CN=CC=C4 [Wnt-C59] + CCNC(=O)c1noc(-c2cc(C(C)C)c(O)cc2O)c1-c1ccc(CN2CCOCC2)cc1 [Luminespib] (partner 0.01 µM)
Summary of the method: as §2

Cell Line | relative viability (Lapatinib; 0.02 µM) | relative viability (Lapatinib; 0.06325 µM) | relative viability (Lapatinib; 0.2 µM) | relative viability (Lapatinib; 0.6325 µM) | relative viability (Lapatinib; 2 µM) | relative viability (Lapatinib; 2 µM, anchor plate) | relative viability (Wnt-C59; 0.001 µM) | relative viability (Wnt-C59; 0.01 µM) | relative viability (Wnt-C59; 0.03162 µM) | relative viability (Wnt-C59; 0.1 µM) | relative viability (Wnt-C59 + OSI-027; first compound 0.001 µM) | relative viability (Wnt-C59 + OSI-027; first compound 0.01 µM) | relative viability (Wnt-C59 + OSI-027; first compound 0.03162 µM) | relative viability (Wnt-C59 + OSI-027; first compound 0.1 µM) | relative viability (Wnt-C59 + Luminespib; first compound 0.001 µM) | relative viability (Wnt-C59 + Luminespib; first compound 0.01 µM) | relative viability (Wnt-C59 + Luminespib; first compound 0.03162 µM) | relative viability (Wnt-C59 + Luminespib; first compound 0.1 µM)
NCI-H1651 | 0.942 | 0.811 | 0.994 | 0.926 | 0.989 | 0.827 | 0.985 | 0.998 | 0.997 | 1 | 0.767 | 0.646 | 0.696 | 0.709 | 0.864 | 0.862 | 0.97 | 0.835
NCI-H1703 | 0.907 | 0.895 | 0.944 | 1.01 | 0.825 | 1.05 | 1.02 | 0.967 | 1.05 | 0.97 | – | – | – | – | – | – | – | –
NCI-H522 | – | 0.746 | 0.855 | 1.01 | 0.791 | – | 1.04 | 0.927 | 0.994 | 0.957 | 0.683 | 0.654 | 0.742 | 0.784 | 1.63 | 1.2 | 0.979 | 1.13
HCC-366 | – | 1.02 | 0.981 | 1.02 | 0.99 | 1.02 | 0.993 | 0.997 | 1.06 | 0.976 | 0.774 | 0.542 | 1.02 | 1.04 | – | – | – | –
SK-LU-1 | 0.799 | 0.89 | 1.01 | 1.11 | 1.03 | 0.85 | 1 | 0.987 | 1.01 | 1.01 | 0.406 | 0.283 | 0.39 | 0.364 | 0.211 | 0.219 | 0.184 | 0.206
NCI-H520 | 0.987 | 0.93 | 1.03 | 1.09 | 0.998 | 0.848 | 1.1 | 0.95 | 0.901 | 1.07 | 0.256 | 0.339 | 0.3 | 0.252 | 0.212 | 0.212 | 0.231 | 0.212
NCI-H1437 | 0.919 | 0.988 | 0.987 | 0.914 | 0.918 | 0.794 | 0.997 | 0.997 | 1 | 1.03 | 0.859 | 0.927 | 0.859 | 0.911 | 1.21 | 1.07 | 1.17 | 1.05
NCI-H460 | 0.952 | 0.984 | 0.969 | 0.969 | 0.868 | 0.988 | 0.973 | 0.95 | 1.02 | 0.957 | 0.663 | 0.739 | 0.88 | 0.624 | 0.0357 | 0.0331 | 0.0466 | 0.0312
LK-2 | 0.852 | – | 0.914 | 1.13 | 1.11 | 1.02 | 0.958 | 0.982 | 0.993 | 1.12 | 0.211 | 0.265 | 0.199 | 0.229 | 0.199 | 0.159 | 0.174 | 0.213
NCI-H358 | 0.693 | 0.478 | 0.611 | 0.569 | 0.335 | 0.474 | 1.01 | 0.785 | 0.957 | 0.975 | 0.838 | 0.769 | 0.908 | 0.767 | 0.315 | 0.341 | 0.291 | 0.475
NCI-H2085 | 0.83 | 0.854 | 0.958 | 0.937 | 0.859 | 0.773 | 1.02 | 0.98 | 1 | 0.953 | 0.837 | 0.569 | 0.747 | 0.77 | 0.457 | 0.502 | 0.419 | 0.494
NCI-H2405 | 0.674 | 0.83 | 0.971 | 1.01 | 0.905 | 1.04 | 1.01 | 0.932 | 0.945 | 0.977 | 0.633 | 0.554 | 0.579 | 0.476 | 0.762 | 0.809 | 0.7 | 0.842
NCI-H1666 | 0.936 | 0.871 | 0.89 | 0.862 | 0.708 | 0.702 | 0.993 | 0.92 | 0.951 | 0.967 | 0.825 | 0.849 | 0.873 | 0.876 | 1.05 | 1.04 | 1.04 | 1.03
NCI-H322M | 0.886 | 0.717 | 0.896 | 0.882 | 0.733 | 0.598 | 0.999 | 0.859 | 0.84 | 0.867 | 0.53 | 0.498 | 0.442 | 0.399 | 0.978 | 0.737 | 0.737 | 0.809
NCI-H1563 | 1.04 | 0.832 | 0.936 | 0.909 | 0.88 | 0.977 | 1.07 | 0.933 | 0.954 | 0.941 | 0.711 | 0.784 | 0.761 | 0.728 | 0.498 | 0.539 | 0.565 | 0.528
IA-LM | 0.816 | 0.977 | 1.04 | 0.902 | 0.983 | 0.848 | 1.05 | 0.909 | 0.94 | 0.884 | – | – | – | – | – | – | – | –
CAL-12T | 0.763 | 0.978 | 0.909 | 0.776 | 0.678 | 0.681 | 0.975 | 1.04 | 0.965 | 1.04 | 0.871 | 0.611 | 0.856 | 0.654 | 0.397 | 0.307 | 0.592 | 0.571
NCI-H1395 | – | 0.896 | 1.02 | 0.919 | 0.742 | 1.05 | 0.995 | 0.873 | 0.952 | 1.03 | 0.61 | 0.661 | 0.717 | 0.727 | 0.702 | 0.589 | 0.762 | 0.773
NCI-H3122 | 0.912 | 0.981 | 0.992 | 0.965 | 1 | 1.03 | 0.989 | 0.991 | 1.02 | 0.962 | 1.02 | 0.978 | 1.32 | 0.891 | 0.0968 | 0.0872 | 0.0839 | 0.0884
